Columns and labels:
Assay type in all cases: in vivo
[1] = system: Aphis gossypii; assay: Test on pest control effect in Aphis gossypii (cucumber nursery plant dip); details: 72 h, 500 ppm active ingredient (wettable powder diluted with water), cucumber nursery plants inoculated with larvae dipped, 25° C., 3 days after treatment
Procedure: [Test example 4] Test on pest control effect in Aphis gossypii A wettable powder prepared according to formulation example 2 was diluted with water to a concentration of 500 ppm as the active ingredient. Some nursery plant of cucumber previously inoculated with larvae of Aphis gossypii were dipped in the drug solution and air-dried. The treated nursery plants of cucumber were placed in a room at constant temperature of 25° C. The number of surviving insects was counted at 3 days after the treatment. Mortality rate was calculated using the formula 1. The number of replication was one in each test.

[2] = system: Helicoverpa armigera; assay: Test on insecticidal activity in Helicoverpa armigera (cabbage leaf dip); details: foliar, 144 h, 500 ppm active ingredient (wettable powder diluted with water), cabbage leaves dipped, hatching larvae, 25° C., 6 days after treatment
Procedure: (§1) A wettable powder prepared according to formulation example 2 was diluted with water to a concentration of 500 ppm as the active ingredient. Some cabbage leaves were dipped in the drug solution, air-dried, and then placed in a plastic cup. Five hatching larvae of Helicoverpa armigera were put on the treated leaves, and the cup was covered with a lid. Then, it was placed in a room at constant temperature of 25° C. The number of dead insects was investigated at 6 days after the treatment. Mortality rate was calculated using the formula 1. The number of replication was two in each test.

[3] = system: Nilaparvata lugens; assay: Test on insecticidal activity in Nilaparvata lugens (rice sprout dip); details: 144 h, 500 ppm active ingredient (wettable powder diluted with water), rice sprouts dipped, second-instar larvae, 25° C., 6 days after treatment
Procedure: A wettable powder prepared according to formulation example 2 was diluted with water to a concentration of 500 ppm as the active ingredient. Some rice sprouts were dipped in the drug solution and placed in a plastic cup. Ten second-instar larvae of Nilaparvata lugens were put on the treated leaves, and the cup was covered with a lid. Then, it was placed in a constant room temperature of 25° C. The number of dead insects was investigated at 6 days after the treatment. Mortality rate was calculated using the formula 1. The number of replication was one in each test.

[4] = system: Plutella xylostella; assay: Test on insecticidal activity in Plutella xylostella (cabbage leaf dip); details: foliar, 144 h, 500 ppm active ingredient (wettable powder diluted with water), cabbage leaves dipped, second-instar larvae, 25° C., 6 days after treatment
Procedure: as §1, with “Ten second-instar” for “Five hatching”, “Plutella xylostella” for “Helicoverpa armigera”, “after” for “after the”, “one” for “two”

Measured: mortality at 500 ppm

CCS(=O)(=O)c1c(-n2cc(OCC(F)(F)C(F)(F)C(F)(F)F)cn2)nc2ccc(Br)cn12 [A-0039, 6-bromo-3-(ethylsulfonyl)-2-[4-(2,2,3,3,4,4,4-heptafluorobutoxy)-1H-pyrazol-1-yl] imidazo [1,2-a] pyridine]
≥ 90%: all assays above

CCS(=O)(=O)c1c(-n2cc(OCC(F)(F)C(F)(F)C(F)(F)F)cn2)nc2ccc(C(F)(F)F)cn12 [A-0046, 3-(ethylsulfonyl)-2-[4-(2,2,3,3,4,4,4-heptafluorobutoxy)-1H-pyrazol-1-yl]-6-(trifluoromethyl)imidazo[1,2-a]pyridine]
≥ 90%: all assays above

CCS(=O)(=O)c1c(-n2cc(OCC(F)(F)C(F)(F)C(F)(F)F)cn2)nc2ccc(C3CC3)cn12 [A-0049, 6-cyclopropyl-3-(ethylsulfonyl)-2-[4-(2,2,3,3,4,4,4-heptafluorobutoxy)-1H-pyrazol-1-yl] imidazo [1,2-a] pyridine]
≥ 90%: all assays above
